Legend:
hLPAR1 = biological target: T1, hLPAR1 (Homo sapiens, UniProt Q92633); experiment: Ca2+ Flux Assay (B103 cells stably expressing hLPAR1); assay type: cell-based; conditions: LPA-induced calcium release, Fura-2 AM, compound 20 min at RT
T1 construct: expressed in transfected cells
Method: B103 cells stably expressing hLPAR1 were seeded at a density of 1.0×10^5 cells per well in clear flat-bottom black 96-well plates and incubated overnight in complete media. The following day, the cells were pre-incubated in serum-free media for 2 hours prior to ensure cellular equilibration. For the loading a calcium-sensitive fluorescent dye, the cells were treated with a concentration of 5 μM Fura-2 AM dye (Sigma, F1225) in Hank's buffered salt solution (HBSS) supplemented with 20 mM HEPES, […], and 0.3% fatty-acid-free bovine serum albumin for 40 minutes at room temperature (RT). Test compounds, prepared in DMSO, were then added to each well and incubated for 20 minutes at RT. To induce calcium release, a concentration of […] in HBSS supplemented with 20 mM HEPES, and 0.3% fatty-acid-free bovine serum albumin was introduced. Intracellular calcium mobilization was subsequently quantified by monitoring the fluorescence intensity using the Spark® multimode microplate reader (TECAN).

A2058 cells = experiment: Chemotaxis Assay (LPA-induced migration of A2058 cells); assay type: cell-based; conditions: Homo sapiens, 4 to 8 hours, crystal violet 590 nm
Method: For monitoring the migration of cells, Neuroprobe ChemoTx® System plates ([…], 5.7 mm diameter sites; Gaithersburg, MD, USA) were utilized. To induce cell migrations, a concentration of […] or vehicle in DMEM were loaded to the bottom chamber. A total of 15,000 A2058 cells, which were starved for 24 hr following treated with test compounds or vehicle, were then applied to the upper membrane coated with 0.001% fibronectin. The plate was incubated for 4 to 8 hours to allow cell migration. Following incubation, the plate was dissembled, and the migrated cells were visualized by crystal violet staining. The stained area with crystal violet was quantified by measuring the absorbance at 590 nm and the relative percentage of the control was calculated.

T1 sequence (Q92633 whole entry): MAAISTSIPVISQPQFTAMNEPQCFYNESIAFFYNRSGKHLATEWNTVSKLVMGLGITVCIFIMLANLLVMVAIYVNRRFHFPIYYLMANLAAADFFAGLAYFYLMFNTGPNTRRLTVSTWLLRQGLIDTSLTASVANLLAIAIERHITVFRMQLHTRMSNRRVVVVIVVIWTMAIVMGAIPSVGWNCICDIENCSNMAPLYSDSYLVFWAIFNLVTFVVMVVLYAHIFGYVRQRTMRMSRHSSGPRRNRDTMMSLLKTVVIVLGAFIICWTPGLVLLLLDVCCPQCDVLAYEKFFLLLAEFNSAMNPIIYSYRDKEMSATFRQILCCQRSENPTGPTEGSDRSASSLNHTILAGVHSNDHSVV

IC50 (hLPAR1) [nM] | IC50 (A2058 cells) [nM] | SMILES
< 10 | < 100 | COC(=O)C(C)(C)S(=O)(=O)NC(=O)C1(c2ccc(N3CCC(c4onc(C)c4NC(=O)O[C@H](C)c4ccccc4)CC3)cc2)CC1 [Compound 69, methyl 2-methyl-2-[[1-[4-[4-[3-methyl-4-[[(1R)-1-phenylethoxy]carbonylamino]isoxazol-5-yl]-1-piperidyl]phenyl]cyclopropanecarbonyl]sulfamoyl]propanoate]
< 10 | < 100 | Cc1noc(C2CCN(c3ccc(C4(C(=O)NS(=O)(=O)C5(C(N)=O)CC5)CC4)cc3)CC2)c1NC(=O)O[C@H](C)c1ccccc1 [Compound 73, (1R)-1-phenylethyl N-(5-{1-[4-(1-{[(1-carbamoylcyclopropyl)sulfonyl]carbamoyl}cyclopropyl)phenyl]piperidin-4-yl}-3-methyl-1,2-oxazol-4-yl)carbamate]
< 10 | < 100 | Cc1noc(C2CCN(c3ccc(C4(C(=O)NS(=O)(=O)C5(C(=O)O)CC5)CC4)cc3)CC2)c1NC(=O)O[C@H](C)c1ccccc1 [Compound 75]
< 10 | 100 to 500 | Cc1noc(C2CCN(c3ccc(C4(C(=O)NS(=O)(=O)C5(CC(=O)O)CC5)CC4)cc3)CC2)c1NC(=O)O[C@H](C)c1ccccc1 [Compound 76]
< 10 | < 100 | Cc1noc(C2CCN(c3ccc(C4(C(=O)NS(=O)(=O)C5(CO)CC5)CC4)cc3)CC2)c1NC(=O)O[C@H](C)c1ccccc1 [Compound 77]
< 10 | < 100 | Cc1noc(C2CCN(c3ccc(C4(C(=O)NS(=O)(=O)CC5(C)COC5)CC4)cc3)CC2)c1NC(=O)O[C@@H](C)c1ccccc1 [Compound 81]
< 10 | < 100 | Cc1noc(C2CCN(c3ccc(C4(C(=O)NS(=O)(=O)CC5(C(=O)O)CC5)CC4)cc3)CC2)c1NC(=O)O[C@H](C)c1ccccc1 [Compound 82, 1-[({[1-(4-{4-[3-methyl-4-({[(1R)-1-phenylethoxy]carbonyl}amino)-1,2-oxazol-5-yl]piperidin-1-yl}phenyl)cyclopropyl]formamido}sulfonyl)methyl]cyclopropane-1-carboxylic acid]
< 10 | < 100 | Cc1noc(C2CCN(c3ccc(C4(c5nnn[nH]5)CC4)cc3)CC2)c1NC(=O)O[C@H](C)c1ccccc1 [Compound 88, [(1R)-1-phenylethyl]N-[3-methyl-5-[1-[4-[1-(1H-tetrazol-5-yl)cyclopropyl]phenyl]-4-piperidyl]isoxazol-4-yl]carbamate]
< 10 | 100 to 500 | Cc1noc(C2CCN(c3ccc(C4(S(=O)(=O)O)CC4)cc3)CC2)c1NC(=O)O[C@H](C)c1ccccc1 [Compound 89, 1-[4-[4-[3-methyl-4-[[(1R)-1-phenylethoxy]carbonylamino]isoxazol-5-yl]-1-piperidyl]phenyl]cyclopropanesulfonic acid]
≥ 3000 | 100 to 500 | Cc1cc(NC(=O)O[C@H](C)c2ccccc2)c(C2CCN(c3ccc(C4(C(=O)O)CC4)cc3)CC2)s1 [Compound 91]
10 to 200 | 500 to 5000 | Cc1noc(C2CCN(c3ccc(C4(C(=O)O)CC4)cc3)CC2)c1NC(=O)OC(C)C1CCCCC1 (stereo not drawn) [Compound 96]
200 to 3000 | 500 to 5000 | Cc1noc(C2CCN(c3ccc(C4(C(=O)O)CC4)cc3)CC2)c1NC(=O)OC1C2C[C@H]3C[C@@H](C2)C[C@@H]1C3 (stereo partly drawn) [Compound 97]

— patent US20260356824A1, “COMPOUNDS FOR TREATING FIBROTIC DISEASES” (Meta-Immue Inc., priority 2023, published 2026)
